Data from patent publication US8673977B2, “Choline salts of succinic acid for the treatment of depression, anxiety, schizophrenia, sleep disorder, and epilepsy” (priority 2008, dated 2014).
Where two headings read alike, the source gives them in different places.

Key:
young male CD1 mice [1] = conditions: mean±SEM, scored during 6 min
Experimental: (A) In the forced swim test, young male CD1 mice, singly housed, were used. Mice were treated i.p. with saline (control) or 25 mg/kg compounds (I) or (II) for 7 days once-a-day and tested at 8th day. In the reference group, mice were treated i.p. with 10 mg/kg Imipramine 30 min prior the swimming test. Forced swim test was done in a glass cylinder 17 cm diameter, water height 13 cm (7 cm to the edge of a cylinder) filled with water at ambient temperature. Animals were scored during 6 min. The latency of the first floating episode was accepted as a measure of forced swim behavior. Statistical analysis was done using ANOVA and Mann-Whitney test as a post-hoc analysis.

Stressed mice = conditions: mean±SEM; stressed mice from Example 2 (i.p. 25 mg/kg for 7 days prior stress); scored during 5 min
Experimental: (B) In the chronic stress depression model, young male CD1 mice, singly housed, were used. […] Stress procedure was used for 10 days.
Effect of the treatment of anxiety with compounds of the invention was assessed in rodents in light/dark transition test. Stressed mice from the Example 2 were tested in a dark/light box as described by Crawley et al., Pharmacol Biochem Behav 13, 167-70 (1980). Animals were scored during 5 min for (i) total time spent in light box and (ii) number of exits. […] Data are presented in Table 3 as mean±SEM of (i) total time spent in light box and (ii) number of exits.

Rats = conditions: rats pretreated i.p. 25 mg/kg for 7 days once-a-day; at day 8, 10 mg/kg caffeine
Experimental: Effect of the treatment of sleep disorder (insomnia) with compound II of the present invention was assessed in caffeine-induced model of insomnia. Rats were treated for 7 days once-a-day with i.p. 25 mg/kg compound II or saline (control).

[2] = system: mice with seizures induced by pentylenetetrazol; conditions: i.p. 10 mg/kg for 7 days once-a-day, pentylenetetrazol administered
Experimental: Effect of the treatment of epilepsy with compounds of the invention was assessed in mice with seizures induced by pentylenetetrazol. Loscher et al., Epilepsy Res 1991, 8:171-189. Mice were treated for 7 days once-a-day with i.p. 10 mg/kg compound II or saline (control). Pentylenetetrazol was administered.

[3] = system: rats raised in social isolation (ISO); conditions: mean±SEM; socially isolated rats, i.p. 25 mg/kg for 7 days once-a-day; 80 dB prepulse, 110 dB pulse, prepulse latency 100 milliseconds
Experimental: Rats were treated for 7 days once-a-day with i.p. 25 mg/kg compound II or saline (control).

young male CD1 mice [4] = conditions: mean±SEM, n=20
Experimental: (B) In the chronic stress depression model, young male CD1 mice, singly housed, were used. […] Stress procedure was used for 10 days. In the reference group, mice received Imipramine orally 8 mg/kg per day for 7 days prior the stress and then in a course on entire 10-days-stress-procedure. Animals (n=20 per group) were tested on a sucrose preference at 10th day of the stress procedure. Statistical analysis was done using ANOVA and Mann-Whitney test as a post-hoc analysis. Data are presented in Table 2 as mean±SEM of a percentage of sucrose preference.

[5] = i.p. 25 mg/kg for 7 days once-a-day, tested at 8th day

C[N+](C)(C)CCO.O=C([O-])CCC(=O)O [Compound (I), monocholine salt of succinic acid]
Latency of the first floating episode (young male CD1 mice [1]; [5]): 117 ± 18 s

C[N+](C)(C)CCO.C[N+](C)(C)CCO.O=C([O-])CCC(=O)[O-] [Compound (II), dicholine salt of succinic acid]
Number of exits (Stressed mice): 4.8 ± 0.6
Time (total time spent in light box) (Stressed mice): 250 ± 11 s
Latency of the first floating episode (young male CD1 mice [1]; [5]): 140 ± 11 s
sleep onset latency (SOL) after caffeine as compared to vehicle (Rats): caffeine did not prolonged SOL
seizures as compared to control [2]: significantly decreases seizures
Prepulse inhibition [3]: 51 ± 9 %
Sucrose preference (young male CD1 mice [4]; i.p. 25 mg/kg for 7 days once-a-day prior the onset of stress, tested at 10th day of stress): 72 ± 3 %

CN(C)CCCN1c2ccccc2CCc2ccccc21 [Imipramine, reference compound]
Latency of the first floating episode (young male CD1 mice [1]; reference group, i.p. 10 mg/kg 30 min prior the swimming test): 60 ± 26 s
Sucrose preference (young male CD1 mice [4]; reference group, orally 8 mg/kg per day for 7 days prior the stress and during 10-days stress, tested at 10th day): 75 ± 4 %
